This is an account of results in patent publication US9289430B2, “Compounds and methods for inhibiting phosphate transport” (Ardelyx, Inc., priority 2010, dated 2016).

One series deals with T1, rat NaP2b (SLC34A2) (Rattus norvegicus, UniProt Q9JJ09).
T1 construct: host or cells: HEK293
T1 sequence (Q9JJ09 1-695): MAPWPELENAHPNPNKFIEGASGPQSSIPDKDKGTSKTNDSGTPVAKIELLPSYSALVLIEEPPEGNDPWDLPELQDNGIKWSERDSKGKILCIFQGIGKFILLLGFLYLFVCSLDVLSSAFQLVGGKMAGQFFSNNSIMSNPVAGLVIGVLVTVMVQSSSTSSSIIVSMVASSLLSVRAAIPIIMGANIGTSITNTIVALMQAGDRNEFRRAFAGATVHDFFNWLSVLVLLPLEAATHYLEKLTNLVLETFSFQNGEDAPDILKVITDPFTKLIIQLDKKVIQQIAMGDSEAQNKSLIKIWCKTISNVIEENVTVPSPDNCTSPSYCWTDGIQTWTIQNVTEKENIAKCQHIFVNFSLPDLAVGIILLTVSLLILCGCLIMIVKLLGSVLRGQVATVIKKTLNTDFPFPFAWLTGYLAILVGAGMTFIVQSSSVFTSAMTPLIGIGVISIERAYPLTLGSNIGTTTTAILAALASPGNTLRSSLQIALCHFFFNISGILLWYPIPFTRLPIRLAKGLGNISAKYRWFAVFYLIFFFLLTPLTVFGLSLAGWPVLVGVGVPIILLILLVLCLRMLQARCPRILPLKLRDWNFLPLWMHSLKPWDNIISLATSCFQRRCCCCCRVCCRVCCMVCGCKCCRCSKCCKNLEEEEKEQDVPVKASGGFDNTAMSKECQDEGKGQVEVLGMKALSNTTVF
In words: NaP2b-mediated Pi transport: 33P phosphate uptake into transfected HEK293 cells. Format: cell-based. To be noted: 100 uM KH2PO4, PiT-silencing agent; for IC50: read-out: pIC50 range for rat Nap2b (converted). The procedure: (§1) Materials. HEK293 cells were obtained from the American Type Culture collection and propagated per their instructions. Expression clones for rat and human NaP2b (SLC34A2) were obtained from Open Biosystems (Catalog numbers MRN1768-9510282, and MHS1010-99823026, respectively). The sequence of the human protein was mutated to insert a threonine after residue 37, and to introduce a N39D mutation.
(§2) Inhibition of Pi Transport. The rate of phosphate (Pi) uptake into HEK293 cells was measured using a modification of the method described by Mohrmann et al. (Mohrmann, I., Mohrmann, M., Biber, J., and Murer, H. (1986) Am. J. Phys. 250(3 Pt 1):G323-30.) Transfected HEK293 cells were treated with a pharmacological agent to minimize endogenous PiT-mediated phosphate transport activity, such that the only remaining sodium-dependent phosphate transport activity is that which was bestowed by introduction of the NaP2b genes.
(§3) Cells were seeded into 96-well plates at 25,000 cells/well and cultured overnight. Lipofectamine 2000 (Invitrogen) was used to introduce the NaP2b cDNA, and the cells were allowed to approach confluence during a second overnight incubation. […] Cells were then overlayed with either choline uptake buffer or sodium uptake buffer (14 mM Tris, 137 mM sodium chloride, 5.4 mM KCl, 2.8 mM CaCl2, 1.2 mM MgSO4, 100 uM KH2PO4, PiT-silencing agent, 1 mg/mL Bovine Serum Albumin, pH 7.4) containing 6-9 uCi/mL ^33P orthophosphoric acid (Perkin Elmer) and test compound. Each compound was tested at twelve concentrations ranging from 0.1 nM to 30 uM. Assays were run in duplicate.
(§4) After incubation for 3-30 minutes at room temperature, assay mixtures were removed, and the cells were washed twice with ice cold stop solution (137 mM sodium chloride, 14 mM Tris, pH 7.4). Cells were lysed by addition of 20 μL 0.1% Tween 80 followed by 100 μL scintillation fluid, and counted using a TopCount (Perkin Elmer).
(§5) pIC50 (the negative log of the IC50) values of the test compounds were calculated using GraphPad Prism.

The subject of the next series is NaPi2b. Kind of series: Competition with phosphate: uptake assay repeated at 2.1 vs 0.1 mM phosphate. Format: cell-based. The following applies: potency for inhibition of NaPi2b at 2.1 vs 0.1 mM phosphate. From the text:
In certain preferred embodiments, the phosphate transport inhibitors of the present invention are not competitive inhibitors with respect to phosphate of Na/phosphate co-transport. In certain other preferred embodiments, the phosphate transport inhibitors of the invention are non-competitive inhibitors. Non-competitive inhibitors maintain their degree of inhibition irrespective of the local phosphate concentration. This feature is an important aspect in providing an efficient blockade of intestinal transport in postprandial state, where the local concentration of dietary phosphate can attain concentration as high as 10 mM. It is believed that competitive inhibitors are too sensitive to local phosphate concentration and unable to block phosphate uptake following a high phosphorus meal. Various methods are available for determining whether a phosphate transport inhibitor is non-competitive or competitive. For example, a phosphate uptake assay can be performed and the IC50 values for a compound at different phosphate concentrations can be determined (e.g., “Enzyme kinetics”, I. Segel, 1975, John-Wiley & Sons, p. 123). IC50 values for non-competitive inhibitors will remain the same or similar with respect to the phosphate concentration, whereas IC50 values for competitive inhibitors will increase (i.e. lose potency) as phosphate concentration increases.
To ascertain if an inhibitor was competitive for binding with phosphate, the procedure was repeated, but raising the concentration of the substrate in the assay mixture from 0.1 to 2.1 mM phosphate.

The nature of series [1]: Determination of compound Cmax and AUC after oral gavage. Format: in vivo, Sprague-Dawley rats. To be noted: Sprague-Dawley, rat plasma, sampling 0.5-4 h. The method, then:
Sprague-Dawley rats were orally gavaged with test article at a nominal dose of 2.5 or 10 mg/kg and blood was collected at 0.5, 1, 2 and 4 h. Blood samples were processed to plasma using K2EDTA as an anticoagulant. Plasma samples were treated with acetonitrile containing an internal standard, precipitated proteins removed by centrifugation. Supernatants were analyzed by LC-MS/MS and compound concentrations were determined by interpolated from a standard curve prepared in plasma. All compounds were orally dosed at the dosage shown, and pharmacokinetic parameters determined

Series [2] is described as follows: Fecal recovery of orally administered compounds. Format: in vivo, Sprague-Dawley rats. The following applies: rats, oral gavage, feces 0-48 hr after dosing. The method, then:
Quantitative determination of test compound level in feces after oral gavage was performed using the same set of animals used to determine test compound concentration in plasma (Example 30). The animals were kept in metabolic cages and feces were collected from the time of dosing until 48 hr after dosing. Upon collection, feces was dried by lyophilization and ground to a visually homogenous powder. Duplicate samples of ground feces from each individual animal were weighed out and extracted using organic solvent. Extracted samples were then diluted into mobile phase and test compound levels were quantitatively determined by LC-MS/MS analysis as described in “Example 30” except that the standard curve was prepared in a feces matrix. Extraction conditions were not optimized for individual compounds, and thus may represent a minimal level of recovery.

Another series deals with T2, human NaP2b (SLC34A2) (Homo sapiens, UniProt O95436).
T2 construct: host or cells: HEK293
T2 sequence (O95436 1-690): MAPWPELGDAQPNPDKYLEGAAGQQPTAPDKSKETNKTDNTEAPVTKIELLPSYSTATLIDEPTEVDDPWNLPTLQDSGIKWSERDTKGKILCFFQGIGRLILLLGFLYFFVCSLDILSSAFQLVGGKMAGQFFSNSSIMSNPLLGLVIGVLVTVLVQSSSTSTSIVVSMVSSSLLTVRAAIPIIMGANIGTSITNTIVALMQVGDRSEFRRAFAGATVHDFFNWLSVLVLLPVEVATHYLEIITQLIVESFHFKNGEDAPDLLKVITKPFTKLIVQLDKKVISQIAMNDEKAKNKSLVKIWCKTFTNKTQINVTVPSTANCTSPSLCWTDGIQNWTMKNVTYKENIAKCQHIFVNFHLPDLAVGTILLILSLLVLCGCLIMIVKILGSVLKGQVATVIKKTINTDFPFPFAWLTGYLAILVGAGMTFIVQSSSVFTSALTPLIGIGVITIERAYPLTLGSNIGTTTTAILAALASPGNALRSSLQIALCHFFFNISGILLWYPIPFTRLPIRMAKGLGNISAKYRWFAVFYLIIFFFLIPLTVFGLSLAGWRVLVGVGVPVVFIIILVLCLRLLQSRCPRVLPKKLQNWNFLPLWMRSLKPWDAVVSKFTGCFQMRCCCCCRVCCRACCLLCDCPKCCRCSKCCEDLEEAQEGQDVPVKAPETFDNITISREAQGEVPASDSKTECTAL
Kind of series: NaP2b-mediated Pi transport: 33P phosphate uptake into transfected HEK293 cells. Format: cell-based. To be noted: human protein with threonine inserted after residue 37 and N39D, 100 uM KH2PO4, read-out: pIC50 range for human Nap2b (converted). The method, then:
as §1, §2, §3, §4, §5

Series [3] deals with Uptake of Phosphate from the Intestine. Kind of series: In vivo bolus phosphorus challenge. On the set-up: species or system Sprague-Dawley rats. To be noted: rats on low-phosphorus diet, oral drug dose 30 (unit not given) 15 min before phosphate bolus, serum 30 min post bolus. The method, then: By pretreating animals with a low phosphorus diet followed by the subsequent dosing of a phosphorus bolus, serum phosphorus levels were monitored after 30 minutes as a surrogate for intestinal phosphorus absorption. […] The in vivo bolus phosphorus challenge model used here mimics this model in rats.
Male, 7-week-old Sprague-Dawley rats (Charles-River laboratories international, Hollister, Calif.) were allowed to acclimatize for a minimum of 3 days before switching to a synthetic low-phosphorus diet (TD.85010, Harlan Teklad, Madison, Wis.) which contains 0.1% phosphorus and 0.6% calcium. At day 5, testing compounds or vehicle alone (as indicated) were orally administered at the indicated dose in a volume of 5 ml/kg, followed by a bolus gavage of monobasic sodium phosphate (1 mmol in 1 ml) 15 min after compound dosing. Serum was collected via retroorbital bleeding 30 min post phosphate bolus and phosphate levels were determined utilizing an ACE ALERA blood chemistry analyzer (Alfa Wassermann Diagnostic Technologies, West Caldwell, N.J.).
The extent of inhibition by test compounds on the elevation of serum phosphate levels in response to the bolus of phosphate is shown in Table 3 (data are expressed as % Inhibition, with 6-10 animals per data point). The differences between groups were evaluated by one-way analysis of variance with Dunnett's post hoc tests.

The mark [4] stands for this setting: nominal 2.5 mg/kg (actual 1.9 mg/kg).
Where [5] appears, read: nominal 10 mg/kg (actual 7.6-11 mg/kg).

`O=C(O)P(=O)(O)O` [PFA, reference compound]: the “pIC50 range for rat Nap2b” value against rat NaP2b (SLC34A2) is recorded as 2-3. Besides, in the series on NaPi2b, the “Competitive with respect to Pi?” value was “Yes”.
Take `O=C(O)c1cccc(SCc2cccc(C(=O)Nc3ccc(N4CCCCC4)cc3C(=O)Nc3ccn(-c4cccc(C(F)(F)F)c4)n3)c2)c1` [Example 18, 3-((3-((4-(Piperidin-1-yl)-2-((1-(3-(trifluoromethyl)phenyl)-1H-pyrazol-3-yl)carbamoyl)phenyl)carbamoyl)benzyl)thio)benzoic acid]: the IC50 at rat NaP2b (SLC34A2) was 1 to 7.94 µM. In addition, in the series with NaPi2b, the “Competitive with respect to Pi?” value was “No”. Also, the results for the AUC in series [1] (setting [4]) and in series [1] (setting [5]) were 2.13 µg·h/mL and 6.05 µg·h/mL, respectively. The Cmax stood at 0.678 µg/mL in series [1] (setting [4]) and 1.82 µg/mL in series [1] (setting [5]). The figures for the “% recovered in feces” value in series [2] (dosed at 1.9 mg/kg) and in series [2] (setting [5]) were 12% and 60%, respectively.
Consider `O=C(O)CCSCc1cccc(C(=O)Nc2ccc(N3CCCCC3)cc2C(=O)Nc2ccn(-c3cccc(C(F)(F)F)c3)n2)c1` [Example 7, 3-((3-((4-(Piperidin-1-yl)-2-((1-(3-(trifluoromethyl)phenyl)-1H-pyrazol-3-yl)carbamoyl)phenyl)carbamoyl)benzyl)thio)propanoic acid], for which the IC50 on human NaP2b (SLC34A2) and on rat NaP2b (SLC34A2) was 1 to 7.94 µM throughout. In addition, the “% Inhibition of Serum P elevation” value in series [3] turned out to be 49%. Moreover, in series [2] (setting [5]), the “% recovered in feces” value worked out at 9.5%.

As usually defined, the AUC is the area under the concentration-time curve, a measure of exposure. Low readings indicate less exposure, high ones more exposure. Broadly, the Cmax is the highest concentration seen after dosing.
